Test [1] can be described thus: Inhibition of Malassezia globosa recombinant beta-carbonic anhydrase preincubated for 15 mins prior to testing measured for 10 to 100 secs by phenol red-based stopped-flow CO2 hydration assay.
A further test deals with Carbonic anhydrase 1 (Homo sapiens, UniProt P00915). Briefly: Inhibition of human recombinant carbonic anhydrase 1 preincubated for 15 mins prior to testing measured for 10 to 100 secs by phenol red-based stopped-flow CO2 hydration assay.
The target of a further test is Carbonic anhydrase 2 (Homo sapiens, UniProt P00918). Briefly: Inhibition of human recombinant carbonic anhydrase 2 preincubated for 15 mins prior to testing measured for 10 to 100 secs by phenol red-based stopped-flow CO2 hydration assay.

Chain of Carbonic anhydrase 1 (P00915 whole entry): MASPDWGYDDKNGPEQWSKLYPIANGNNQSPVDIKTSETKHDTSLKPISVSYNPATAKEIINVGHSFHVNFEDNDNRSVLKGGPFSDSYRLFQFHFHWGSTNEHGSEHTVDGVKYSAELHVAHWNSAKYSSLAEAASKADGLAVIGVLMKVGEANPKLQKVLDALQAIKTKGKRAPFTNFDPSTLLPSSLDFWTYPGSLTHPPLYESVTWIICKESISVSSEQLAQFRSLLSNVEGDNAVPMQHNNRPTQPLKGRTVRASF

Consider `Nc1cc(O)ccc1Cl`, for which, in test [1], the Ki is 44.9 µM.
For the compound `Oc1c(F)cc(F)cc1F`, the Ki was 36.4 µM in test [1], greater than 100 µM at Carbonic anhydrase 1 and greater than 100 µM on Carbonic anhydrase 2.
For the compound `Oc1cc(F)cc(F)c1`, the Ki in test [1] worked out at 8.8 µM.
Turning to `Oc1cc(F)ccc1F`, in test [1], the Ki stood at 29.7 µM.
Regarding `Oc1ccc(O)c(O)c1`, the Ki is 7.4 µM in test [1], greater than 100 µM on Carbonic anhydrase 1 and greater than 100 µM at Carbonic anhydrase 2.
Regarding `Nc1ccc(O)c(Cl)c1`, the values for the Ki (in test [1]; on Carbonic anhydrase 1; at Carbonic anhydrase 2) were greater than 100 µM, 57.8 µM and 57.5 µM, respectively.
With `O=C(O)c1c(O)cccc1O`, the Ki in test [1] came out at 5.9 µM.
Same read-out and setting: for `Nc1cccc(O)c1` [3-AMINOPHENOL] the value was 3.9 µM; for `Nc1ccc(O)cc1` [4-AMINOPHENOL], 32 µM.
The same measure, in the same setting: the result for `N#Cc1ccc(O)cc1` [4-CYANOPHENOL] reads 0.7 µM.
Consider `CC(=O)Nc1ccc(O)cc1` [ACETAMINOPHEN], for which, in test [1], the Ki came out at 2.5 µM.
As for `CC(=O)Nc1nnc(S(N)(=O)=O)s1` [ACETAZOLAMIDE], in test [1], the Ki amounted to 74 µM.
Take `O=C(O)/C=C/c1ccc(O)c(O)c1` [CAFFEIC ACID]: in test [1], the Ki amounted to 0.6 µM.
On the same count and under the same terms, for `Oc1ccccc1O` [CATECHOL] the value was 7 µM.
Turning to `O=C(O)/C=C/c1ccc(O)cc1` [COUMARIC ACID], the Ki in test [1] is 3.3 µM.
Regarding `O=C(O)c1cc(O)ccc1O` [GENTISIC ACID], the Ki in test [1] is 4.5 µM.
Regarding `Oc1ccc(O)cc1` [HYDROQUINONE], the Ki in test [1] turned out to be 6.3 µM.
Still for that read-out and setting: the result for `O=C(O)c1ccc(O)cc1` [PARABEN] reads 4.9 µM; that for `OCc1ccc(O)cc1` [PARAHYDROXYBENZYL ALCOHOL], 6.1 µM.
Consider `Oc1ccccc1` [PHENOL], for which the inhibition constant Ki in test [1] amounted to 65 µM.
Still for that read-out and setting: the result for `O=C(O)c1ccc(O)c(O)c1` [PROTOCATECHUIC ACID] reads 6.5 µM; that for `Oc1cccc(O)c1` [RESORCINOL], 6.1 µM; that for `O=C(O)c1ccccc1O` [SALICYLIC ACID], 6.6 µM.

For the origin of these results see ChEMBL document CHEMBL4017449, “Inhibition of Malassezia globosa carbonic anhydrase with phenols” (Bioorg Med Chem, 2017).
